According to patent US12448399B2, “Cereblon-based KRAS degrading PROTACs and uses related thereto” (Arvinas Operations, Inc., priority 2023, dated 2025):

Legend:
[1] = biological target: T1, KRas-G12D (Homo sapiens, UniProt P01116, G12D); assay: HiBiT Degradation Assay (G12D), AsPC-1 HiBiT-KRasG12D cells, 24 hr; assay type: cell-based; conditions: for Dmax: ASPC1, AsPC-1 cells, maximum degradation observed; for DC50: AsPC-1 cells
T1 construct: insert the HiBiT tag onto the N-terminus of one or more of the endogenous KRas alleles; host or cells: AsPC-1 HiBiT-KRasG12D knock-in clone (one tagged allele, two untagged KRasG12D alleles)
T1 sequence (P01116 1-188 isoform P01116-2 G12D): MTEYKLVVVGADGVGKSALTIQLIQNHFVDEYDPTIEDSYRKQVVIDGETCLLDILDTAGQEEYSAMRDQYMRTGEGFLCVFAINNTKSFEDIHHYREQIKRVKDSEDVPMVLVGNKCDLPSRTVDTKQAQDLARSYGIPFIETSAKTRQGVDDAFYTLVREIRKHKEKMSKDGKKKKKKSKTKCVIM
Outline: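 Degradation was read after 24 hr compound exposure (0.5% DMSO, 37° C) by Nano-Glo HiBiT lytic luminescence in AsPC-1 cells carrying a HiBiT tag on one of three KRasG12D alleles. Signal relative to DMSO gave DC50 and Dmax by 4-parameter fit; alamar blue fluorescence monitored cytotoxicity.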

[2] = test system: AsPC-1; assay: Tumor growth inhibition in vivo, AsPC-1 pancreatic cancer model; parameters: species or system CB17 SCID female mice; conditions: AsPC-1 model, dosed intravenously (IV)
Protocol: (§1) The effect on tumor growth of treatment with Compound 69 and 102 was assessed in the GP2d (95090714 Millipore Sigma, USA) and LS180 (CL-187 ATCC, USA) colorectal cancer models, and the AsPC-1 (CRL-1682 ATCC, USA), SW1990 (CRL-2172, ATCC, USA), HPAC (CRL-2119 ATCC, USA), and Panc04.03 (CRL-2555 ATCC, USA) pancreatic cancer models. Briefly, cells were grown in HYPER flasks (Corning) and harvested and prepared for implant by preparing a suspension with a final concentration of 25×10^6 cells/ml in 50% matrigel (Corning) and 50% phenol red-free media (Gibco DMEM or RPMI-1640, depending on cell line). For Panc04.03, 6-7 week NOD/SCID female mice (GemPharmatech Co. Ltd) were inoculated with 200 μl of the cell suspension ([…]) subcutaneously on the left flank under sterile conditions. For all other cell lines, 6-8 weeks old CB17 SCID female mice (Charles River Laboratories) were inoculated with 200 μl of the cell suspension (5 million cells/mouse) subcutaneously on the left flank under sterile conditions. Studies were initiated when tumors reached an average of approximately 200 mm^3. […] Tumor growth inhibition (TGI) was calculated using the formula % TGI=(VC−VT)/(VC−V0)×100 where VC, VT are the average of control and treated groups at the end of the study, and V0 is the average tumor volume at randomization.

[3] = test system: LS180; assay: Tumor growth inhibition in vivo, LS180 colorectal cancer model; parameters: species or system CB17 SCID female mice; conditions: dosed intravenously (IV)
Protocol: as §1

[4] = test system: SW1990; assay: Tumor growth inhibition in vivo, SW1990 pancreatic cancer model; parameters: species or system CB17 SCID female mice; conditions: dosed intravenously (IV)
Protocol: as §1

[5] = test system: HPAC; assay: Tumor growth inhibition in vivo, HPAC pancreatic cancer model; parameters: species or system CB17 SCID female mice; conditions: dosed intravenously (IV)
Protocol: as §1

[6] = test system: GP2d; assay: Tumor growth inhibition in vivo, GP2d colorectal cancer model; parameters: species or system CB17 SCID female mice; conditions: dosed intravenously (IV)
Protocol: as §1

[7] = test system: Panc04.03; assay: Tumor growth inhibition in vivo, Panc04.03 pancreatic cancer model; parameters: species or system NOD/SCID female mice; conditions: Panc04.03 model, dosed intravenously (IV)
Protocol: as §1

Structure (SMILES)	Dmax [1] [%]	DC50 [1] [µM]	Tumor growth response [2]	Tumor growth inhibition (TGI) [3]	Tumor growth inhibition (TGI) [4]	Tumor growth inhibition (TGI) [5]	Tumor growth inhibition (TGI) [6]	Tumor growth inhibition (TGI) [7]	TGI [2] [%]
C#Cc1c(F)ccc2cc(O)cc(-c3ncc4c(N5CC6CCC(C5)N6)nc(OCCN5CCC(CC6CCN(CC7CCN(c8ccc9c(c8F)CN(C8CCC(=O)NC8=O)C9=O)CC7)CC6)CC5)nc4c3F)c12 (stereo not shown) [Compound 69, 3-[5-[4-[[4-[[1-[2-[4-(3,8-diazabicyclo[3.2.1]octan-3-yl)-7-(8-ethynyl-7-fluoro-3-hydroxy-1-naphthyl)-8-fluoro-pyrido[4,3-d]pyrimidin-2-yl]oxyethyl]-4-piperidyl]methyl]-1-piperidyl]methyl]-1-piperidyl]-4-fluoro-1-oxo-isoindolin-2-yl]piperidine-2,6-dione]	> 70	< 5.1	More moderate response	robust TGI	robust TGI	robust TGI	robust TGI	robust TGI	–
C#Cc1c(F)ccc2cc(O)cc(-c3ncc4c(N5CC6CCC(C5)N6)nc(OCCN5CCC(CC6CCN(CC7CCN(c8ccc9c(c8)n(C)c(=O)n9C8CCC(=O)NC8=O)CC7)CC6)CC5)nc4c3F)c12 (stereo not shown) [Compound 102, 3-[5-[4-[[4-[[1-[2-[4-(3,8-diazabicyclo[3.2.1]octan-3-yl)-7-(8-ethynyl-7-fluoro-3-hydroxy-1-naphthyl)-8-fluoro-pyrido[4,3-d]pyrimidin-2-yl]oxyethyl]-4-piperidyl]methyl]-1-piperidyl]methyl]-1-piperidyl]-3-methyl-2-oxo-benzimidazol-1-yl]piperidine-2,6-dione]	> 70	< 5.1	–	robust TGI	robust TGI	robust TGI	robust TGI	robust TGI	100
C#Cc1c(F)ccc2cc(O)cc(-c3ccc4c(N5CC6CCC(C5)N6)nc(OCCN5CCC(CN6CCC(CC7CCN(c8ccc9c(c8)n(C)c(=O)n9C8CCC(=O)NC8=O)CC7)CC6)CC5)nc4c3F)c12 (stereo not shown) [Compound 233]	> 70	< 5.1	–	–	–	–	–	–	–
C#Cc1c(F)ccc2cccc(-c3ncc4c(N5CC6CCC(C5)N6)nc(OC[C@@]56CCCN5[C@H](CN5CCN(CC7CCN(c8ccc9c(c8)n(C)c(=O)n9C8CCC(=O)NC8=O)CC7)CC5)CC6)nc4c3F)c12 (stereo partly shown) [Compound 234]	> 70	< 5.1	–	–	–	–	–	–	–
C#Cc1c(F)ccc2cc(O)cc(-c3ncc4c(N5CC6CCC(C5)N6)nc(N5CC[C@@H](N6CCC(CC7CCN(c8ccc9c(c8)n(C)c(=O)n9C8CCC(=O)NC8=O)CC7)CC6)C5)nc4c3F)c12 (stereo partly drawn) [Compound 236, 3-[5-[4-[[1-[(3R)-1-[4-(3,8-diazabicyclo[3.2.1]octan-3-yl)-7-(8-ethynyl-7-fluoro-3-hydroxy-1-naphthyl)-8-fluoro-pyrido[4,3-d]pyrimidin-2-yl]pyrrolidin-3-yl]-4-piperidyl]methyl]-1-piperidyl]-3-methyl-2-oxo-benzimidazol-1-yl]piperidine-2,6-dione]	> 70	< 5.1	–	–	–	–	–	–	–
C#Cc1c(F)ccc2cc(O)cc(-c3ccc4c(N5CC6CCC(C5)N6)nc(OCCN5CCC(CC6CCN(CC7CCN(c8ccc9c(c8)n(C)c(=O)n9C8CCC(=O)NC8=O)CC7)CC6)CC5)nc4c3F)c12 (stereo not shown) [Compound 237]	> 70	< 5.1	–	–	–	–	–	–	–
C#Cc1c(F)ccc2cccc(-c3ncc4c(N5CC6CCC(C5)N6)nc(OC[C@@]56CCCN5[C@H](CN5CCN(CC7CCN(c8ccc9c(c8F)CN(C8CCC(=O)NC8=O)C9=O)CC7)CC5)CC6)nc4c3F)c12 (stereo partly shown) [Compound 238]	> 70	< 5.1	–	–	–	–	–	–	–
C#Cc1c(F)ccc2cc(O)cc(-c3ncc4c(N5CC6CCC(C5)N6)nc(OCCN5CCC(CN6CCN(CC7CCN(c8ccc9c(c8F)CN(C8CCC(=O)NC8=O)C9=O)CC7)CC6(C)C)CC5)nc4c3F)c12 (stereo not shown) [Compound 239, 3-[5-[4-[[4-[[1-[2-[4-(3,8-diazabicyclo[3.2.1]octan-3-yl)-7-(8-ethynyl-7-fluoro-3-hydroxy-1-naphthyl)-8-fluoro-pyrido[4,3-d]pyrimidin-2-yl]oxyethyl]-4-piperidyl]methyl]-3,3-dimethyl-piperazin-1-yl]methyl]-1-piperidyl]-4-fluoro-1-oxo-isoindolin-2-yl]piperidine-2,6-dione]	> 70	< 5.1	–	–	–	–	–	–	–
